Measurements from US11603372B2, “Compounds and therapeutic uses thereof” (VioGen Biosciences, LLC, priority 2017, dated 2023).

What follows are compounds tested against PIKfyve (Homo sapiens (Human), UniProt Q9Y2I7) (assay: Kinase binding assay (kinase-tagged T7 phage, affinity beads, qPCR readout), Kd determination). Conditions: 11-point 3-fold compound dilution series.
Experimental: Kinase assays. For most assays, kinase-tagged T7 phage strains were prepared in an E. coli host derived from the BL21 strain. E. coli were grown to log-phase and infected with T7 phage and incubated with shaking at 32° C. until lysis. The lysates were centrifuged and filtered to remove cell debris. The remaining kinases were produced in HEK-293 cells and subsequently tagged with DNA for qPCR detection. Streptavidin-coated magnetic beads were treated with biotinylated small molecule ligands for 30 minutes at room temperature to generate affinity resins for kinase assays. The liganded beads were blocked with excess biotin and washed with blocking buffer (SeaBlock (Pierce), 1% BSA, 0.05% Tween 20, 1 mM DTT) to remove unbound ligand and to reduce non-specific binding. Binding reactions were assembled by combining kinases, liganded affinity beads, and test compounds in 1× binding buffer (20% SeaBlock, 0.17×PBS, 0.05% Tween 20, 6 mM DTT). Test compounds were prepared as 111× stocks in 100% DMSO. Kds were determined using an 11-point 3-fold compound dilution series with three DMSO control points. All compounds for Kd measurements are distributed by acoustic transfer (non-contact dispensing) in 100% DMSO. The compounds were then diluted directly into the assays such that the final concentration of DMSO was 0.9%. All reactions performed in polypropylene 384-well plate. Each was a final volume of 0.02 ml. The assay plates were incubated at room temperature with shaking for 1 hour and the affinity beads were washed with wash buffer (1×PBS, 0.05% Tween 20). The beads were then re-suspended in elution buffer (1×PBS, 0.05% Tween 20, 0.5 μM non-biotinylated affinity ligand) and incubated at room temperature with shaking for 30 minutes. The kinase concentration in the eluates was measured by qPCR.
An 11-point 3-fold serial dilution of each test compound was prepared in 100% DMSO at 100× final test concentration and subsequently diluted to 1× in the assay (final DMSO concentration=1%). Most Kds were determined using a compound top concentration=30,000 nM. If the initial Kd determined was <0.5 nM (the lowest concentration tested), the measurement was repeated with a serial dilution starting at a lower top concentration.

PIKfyve, sequence (Q9Y2I7 whole entry): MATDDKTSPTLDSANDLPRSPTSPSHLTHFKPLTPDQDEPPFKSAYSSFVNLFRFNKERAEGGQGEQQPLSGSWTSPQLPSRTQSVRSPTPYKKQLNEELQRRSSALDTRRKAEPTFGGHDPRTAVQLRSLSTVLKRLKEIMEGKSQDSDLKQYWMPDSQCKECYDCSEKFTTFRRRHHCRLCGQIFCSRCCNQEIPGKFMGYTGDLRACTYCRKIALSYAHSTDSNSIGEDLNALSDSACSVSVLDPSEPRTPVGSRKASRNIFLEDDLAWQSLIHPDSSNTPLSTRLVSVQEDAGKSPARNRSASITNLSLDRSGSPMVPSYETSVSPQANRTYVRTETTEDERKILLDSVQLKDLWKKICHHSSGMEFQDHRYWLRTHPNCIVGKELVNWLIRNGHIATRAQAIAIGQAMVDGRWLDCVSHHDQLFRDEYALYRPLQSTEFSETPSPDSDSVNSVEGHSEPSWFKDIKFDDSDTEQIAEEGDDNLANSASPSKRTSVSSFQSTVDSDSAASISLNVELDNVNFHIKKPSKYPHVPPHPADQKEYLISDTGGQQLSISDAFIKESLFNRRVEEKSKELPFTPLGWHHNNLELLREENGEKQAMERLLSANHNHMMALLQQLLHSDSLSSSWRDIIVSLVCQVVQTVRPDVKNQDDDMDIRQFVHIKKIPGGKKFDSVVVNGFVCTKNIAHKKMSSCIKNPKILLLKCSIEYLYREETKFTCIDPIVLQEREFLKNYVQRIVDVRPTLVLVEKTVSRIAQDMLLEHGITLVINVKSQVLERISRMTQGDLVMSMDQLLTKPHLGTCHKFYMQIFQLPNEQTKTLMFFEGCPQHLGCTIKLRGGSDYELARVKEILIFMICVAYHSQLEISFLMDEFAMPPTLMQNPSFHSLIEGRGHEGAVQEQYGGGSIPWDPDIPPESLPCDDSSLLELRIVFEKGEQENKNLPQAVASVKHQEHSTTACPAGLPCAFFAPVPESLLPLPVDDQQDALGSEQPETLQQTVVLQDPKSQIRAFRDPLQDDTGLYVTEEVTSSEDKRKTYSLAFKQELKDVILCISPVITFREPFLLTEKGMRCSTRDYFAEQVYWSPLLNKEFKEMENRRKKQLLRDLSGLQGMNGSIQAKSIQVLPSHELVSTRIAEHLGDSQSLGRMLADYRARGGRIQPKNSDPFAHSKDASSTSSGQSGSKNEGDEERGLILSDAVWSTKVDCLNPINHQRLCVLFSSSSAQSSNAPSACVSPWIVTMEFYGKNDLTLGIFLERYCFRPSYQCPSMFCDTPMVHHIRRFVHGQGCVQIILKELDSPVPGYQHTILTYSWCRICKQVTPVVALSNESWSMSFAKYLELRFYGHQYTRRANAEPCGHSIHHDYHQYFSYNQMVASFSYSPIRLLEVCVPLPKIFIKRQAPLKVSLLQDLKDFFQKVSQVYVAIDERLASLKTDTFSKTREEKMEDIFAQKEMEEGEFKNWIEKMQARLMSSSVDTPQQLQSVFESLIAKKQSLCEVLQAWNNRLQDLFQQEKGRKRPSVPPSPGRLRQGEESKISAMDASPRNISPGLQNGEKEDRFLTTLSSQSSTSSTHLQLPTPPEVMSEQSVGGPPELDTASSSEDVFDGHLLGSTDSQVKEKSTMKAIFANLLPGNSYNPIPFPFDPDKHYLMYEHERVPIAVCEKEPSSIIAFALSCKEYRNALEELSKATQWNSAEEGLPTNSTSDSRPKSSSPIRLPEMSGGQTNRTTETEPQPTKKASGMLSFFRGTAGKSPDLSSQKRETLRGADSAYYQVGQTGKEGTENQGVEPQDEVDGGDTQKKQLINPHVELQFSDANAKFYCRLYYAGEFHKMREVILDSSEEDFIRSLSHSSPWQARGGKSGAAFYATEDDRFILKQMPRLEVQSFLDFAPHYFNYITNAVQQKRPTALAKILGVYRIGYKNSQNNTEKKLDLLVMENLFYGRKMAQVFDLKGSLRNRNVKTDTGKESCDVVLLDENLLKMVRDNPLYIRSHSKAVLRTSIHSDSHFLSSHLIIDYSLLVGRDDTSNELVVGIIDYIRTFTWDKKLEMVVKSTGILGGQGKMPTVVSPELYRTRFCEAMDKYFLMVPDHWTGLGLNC

Kd [nM]	SMILES
1 to 10	Cc1cccc(/C=N/Nc2nc(N3CCOCC3)c3sc(-c4ccccc4)cc3n2)c1 [Example 1, 4-morpholino-N-[(E)-m-tolylmethyleneamino]-6-phenyl-thieno[3,2-d]pyrimidin-2-amine]
≤ 1	Cc1cccc(/C=N/Nc2nc(N3CCOCC3)c3sc(-c4ccncc4)cc3n2)c1 [Example 2, 4-morpholino-N-[(E)-m-tolylmethyleneamino]-6-(4-pyridyl)thieno[3,2-d]pyrimidin-2-amine]
1 to 10	Cc1cccc(/C=N/Nc2nc(N3CCOCC3)c3sccc3n2)c1 [Example 3, 4-morpholino-N-[(E)-m-tolylmethyleneamino]thieno[3,2-d]pyrimidin-2-amine]
≤ 1	Cc1cccc(/C=N/Nc2nc(N3CCOCC3)c3sc(C(=O)Nc4cccnc4)cc3n2)c1 [Example 4, 4-morpholino-2-[(2E)-2-(m-tolylmethylene)hydrazino]-N-(3-pyridyl)thieno[3,2-d]pyrimidine-6-carboxamide]
1 to 10	Cc1cccc(/C=N/Nc2nc(N3CCOCC3)c3sc(C(=O)Nc4ccncc4)cc3n2)c1 [Example 5, 4-morpholino-2-[(2E)-2-(m-tolylmethylene)hydrazino]-N-(4-pyridyl)thieno[3,2-d]pyrimidine-6-carboxamide]
≤ 1	Cc1cccc(/C=N/Nc2nc(N3CCOCC3)c3sc(C(=O)NC4COC4)cc3n2)c1 [Example 7, 4-morpholino-2-[(2E)-2-(m-tolylmethylene)hydrazino]-N-(oxetan-3-yl)thieno[3,2-d]pyrimidine-6-carboxamide]
1 to 10	Cc1cccc(/C=N/Nc2nc(N3CCOCC3)c3sc(-c4cnco4)cc3n2)c1 [Example 9, 4-Morpholino-N-[(E)-m-tolylmethyleneamino]-6-oxazol-5-yl-thieno[3,2-d]pyrimidin-2-amine]
10 to 60	Cc1cccc(/C=N/Nc2nc(N3CCOCC3)c3ccsc3n2)c1 [Example 10, 4-morpholino-N-[(E)-m-tolylmethyleneamino]thieno[2,3-d]pyrimidin-2-amine]
1 to 10	Cc1cccc(/C=N/Nc2nc(N3CCOCC3)c3cc(-c4ccncc4)sc3n2)c1 [Example 11, 4-morpholino-N-[(E)-m-tolylmethyleneamino]-6-(4-pyridyl)thieno[2,3-d]pyrimidin-2-amine]
≤ 1	Cc1cccc(/C=N/Nc2nc(N3CCOCC3)c3cc(-c4cnco4)sc3n2)c1 [Example 12, 4-morpholino-N-[(E)-m-tolylmethyleneamino]-6-oxazol-5-yl-thieno[2,3-d]pyrimidin-2-amine]
10 to 60	Clc1cccc(/C=N/Nc2nc(N3CCOCC3)c3cc(-c4cnco4)sc3n2)c1 [Example 14, N-[(E)-(3-chlorophenyl)methyleneamino]-4-morpholino-6-oxazol-5-yl-thieno[2,3-d]pyrimidin-2-amine]
1 to 10	Cc1cccc(/C=N/Nc2nc(N3CCOCC3)c3sc(C(=O)NC4CNC4)cc3n2)c1 [Example 22, N-(azetidin-3-yl)-4-morpholino-2-[(2E)-2-(m-tolylmethylene)hydrazino]thieno[3,2-d]pyrimidine-6-carboxamide]
10 to 60	Cc1cccc(CCNc2nc(N3CCOCC3)c3sc(-c4ccncc4)cc3n2)c1 [Example 255, 4-morpholino-N-[2-(m-tolyl)ethyl]-6-(4-pyridyl)thieno[3,2-d]pyrimidin-2-amine]
≤ 1	Cc1cccc(/C=N/Nc2nc(N3CCOCC3)c3sc(-c4cccnc4)cc3n2)c1 [Example 261, 4-morpholino-N-[(E)-m-tolylmethyleneamino]-6-(3-pyridyl)thieno[3,2-d]pyrimidin-2-amine]
≤ 1	Cc1cccc(/C=N/Nc2nc(N3CCOCC3)c3sc(-c4cnn(C)c4)cc3n2)c1 [Example 262, 6-(1-methylpyrazol-4-yl)-4-morpholino-N-[(E)-m-tolylmethyleneamino]thieno[3,2-d]pyrimidin-2-amine]
≤ 1	Cc1cccc(/C=N/Nc2nc(N3CCOCC3)c3sc(-c4c(C)n[nH]c4C)cc3n2)c1 [Example 263, 6-(3,5-dimethyl-1H-pyrazol-4-yl)-4-morpholino-N-[(E)-m-tolylmethyleneamino]thieno[3,2-d]pyrimidin-2-amine]
≤ 1	Cc1cccc(/C=N/Nc2nc(N3CCOCC3)c3sc(-c4c(C)noc4C)cc3n2)c1 [Example 264, 6-(3,5-dimethylisoxazol-4-yl)-4-morpholino-N-[(E)-m-tolylmethyleneamino]thieno[3,2-d]pyrimidin-2-amine]
1 to 10	Cc1cccc(/C=N/Nc2nc(N3CCOCC3)c3cc(-c4c(C)noc4C)sc3n2)c1 [Example 267, 6-(3,5-dimethylisoxazol-4-yl)-4-morpholino-N-[(E)-m-tolylmethyleneamino]thieno[2,3-d]pyrimidin-2-amine]
1 to 10	Cc1cccc(/C=N/Nc2nc(N3CCOCC3)c3cc(-c4c(C)n[nH]c4C)sc3n2)c1 [Example 268, 6-(3,5-dimethyl-1H-pyrazol-4-yl)-4-morpholino-N-[(E)-m-tolylmethyleneamino]thieno[2,3-d]pyrimidin-2-amine]
